Read-outs that look alike come from different tables or passages of the source.
Key:
[1] = test system: Tsp 130 binding to the crude T. spiralis muscle stage larval lysate E11.5; assay: Competitive inhibition assay: disaccharide inhibition of Tsp 130 binding to crude muscle stage larval lysate E11.5 (Example 7); details: for inhibition of Tsp 130 binding to E11.5 lysate: about 500 μg/ml
Procedure: (§1) Samples in which Tsp-130 monoclonal antibodies and disaccharides, as listed below, were pre-incubated prior to addition to the treated ELISA plate were prepared as follows. One thousand-fold serial dilutions of the following disaccharides, ranging from about 1×10^-6 fg/ml to about 1 mg/ml, were prepared in water: (a) α-tyvelose(1,3)β-d-N-acetylgalactosamine (also referred to herein as α-tyv-GalNAc); (b) β-tyvelose(1,3)β-d-N-acetylgalactosamine (also referred to herein as β-tyv-GalNAc); and (c) α-glucoseα-D-glucose (also referred to herein as α-glc-glc, or trehalose). The disaccharide-containing serial dilutions were then mixed with an about 1:6,400 dilution of Tsp 130 antibody at an about 1:1 (v:v) ratio. The samples were incubated for overnight at about 4° C.
(§2) About 100 μl of the pre-incubation samples were added in triplicate to wells in the milk-coated ELISA plate. The plate was incubated for about 1 hour at room temperature to allow any unbound Tsp 130 antibody in each sample to bind to TSL-1 antigen coated onto the ELISA plate. The plate was then washed 3 times with water.
(§3) The amount of Tsp 130 antibody that bound to TSL-1 antigen coated onto the ELISA plate was determined using the following method. About 100 μl of an about 1:8,000 dilution of horse radish peroxidase-conjugated goat anti-mouse IgG antibody (available from Kirkegaard & Perry Laboratories, Inc., Gaithersburg, Md.) was added to each well of the ELISA plate. The plate was then incubated for about 45 minutes at room temperature. Following incubation, the plate was washed 5 times with 0.05% Tween 20 in phosphate-buffered saline (PBS). The peroxidase-conjugated antibodies which bound to Tsp 130 antibody in the wells were then detected by (a) adding 100 μl/well of 3,3',5,5'-tetramethylbenzidine mixed 1:1 (v:v) with 0.02% hydrogen peroxide in a citric acid buffer (i.e., TMB Microwell Peroxidase Substrate System available from Kirkegaard & Perry) and (b) incubating the plate for about 5 minutes at room temperature. The color reaction was stopped by adding about 100 μl/well of 1M o-phosphoric acid. The color reaction was quantitated using a Microplate Reader #7520, available from Cambridge Technology, Inc., Watertown, Mass. at a wavelength of 450 nm.
Monoclonal antibody Tsp 130 was prepared as described in Example 5. A crude muscle larval lysate of T. spiralis, referred to herein as E11.5, was prepared according to the method as described in Reason et al., ibid.
An Immunlon II ELISA plate coated with E11.5 lysate was prepared using the method described in Example 5 with the variation that wells in the plate were coated with about 100 μl/well of a solution containing about 250 ng of E11.5 lysate per 100 μl carbonate buffer at pH 9.6. […]

[2] = test system: binding of Tsp 130 antibody to TSL-1 antigen; assay: Competition ELISA: disaccharide inhibition of Tsp 130 antibody binding to TSL-1 antigen (Example 5); set-up: species or system T. spiralis; details: for inhibition of binding of Tsp 130 antibody to TSL-1 antigen: about 500 μg/ml; for relative affinity of Tsp 130 binding: in words, Example 5
Procedure: (§4) Monoclonal antibody Tsp 130 was prepared as described in Denkers et al. (J. Immunol. 144:3152-3159, 1990). TSL-1 antigens were prepared from muscle stage larvae by affinity purification using a Tsp 130 antibody preparation and methods as described in Denkers et al., J. Immunol., ibid., and Denkers et al., Mol. Biochem. Parasitol., ibid.
(§5) Wells in an ELISA plate were coated with TSL-1 antigens as follows. A 96-well Immunlon II ELISA plate, available from Dynatech Laboratories, Chantilly, Va., was coated with about 100 μl/well of a solution containing about 15 ng of TSL-1 antigens per 100 μl carbonate buffer at pH 9.6, overnight, at about 4° C. Following the overnight incubation, the TSL-1 antigen-containing solution was discarded from the wells of the ELISA plate. No wash was performed. The wells of the ELISA plate were then filled to the top with about 10% dry milk in phosphate buffered saline and allowed to incubate for about 1 hour at room temperature. Following the 1 hour incubation, the milk solution was discarded from the wells. No wash was performed.
as §1, §2, §3

[3] = test system: Tsp 130 binding to TSL-1 antigen; assay: Competitive inhibition assay: disaccharide inhibition of Tsp 130 binding to TSL-1 antigen (Example 6); set-up: species or system T. spiralis
Procedure: as §4, §5, §1
About 100 μl of the pre-incubation samples were added in triplicate to wells in the milk-coated ELISA plate. The plate was incubated for about 1 hour at room temperature to allow any unbound Tsp 130 antibody in each sample to bind to TSL-1 antigen coated onto the ELISA plate. […]
The amount of Tsp 130 antibody that bound to TSL-1 antigen coated onto the ELISA plate was determined using the following method. […] The peroxidase-conjugated antibodies which bound to Tsp 130 antibody in the wells were then detected by (a) adding 100 μl/well of 3,3',5,5'-tetramethylbenzidine mixed 1:1 (v:v) with 0.02% hydrogen peroxide in a citric acid buffer (i.e., TMB Microwell Peroxidase Substrate System available from Kirkegaard & Perry) and (b) incubating the plate for about 5 minutes at room temperature. […] The color reaction was quantitated using a Microplate Reader #7520, available from Cambridge Technology, Inc., Watertown, Mass. at a wavelength of 450 nm. […]

[4] = test system: binding of Tsp 130 antibody to T. spiralis TSL-1 antigens and E11.5 lysate

Row | Molecule | inhibition of Tsp 130 binding to E11.5 lysate [1] | inhibition of binding of Tsp 130 antibody to TSL-1 antigen [2] | relative affinity of Tsp 130 binding [2] | inhibition of Tsp 130 binding to TSL-1 antigen ([3]; about 1 mg/ml) | further results
1 | OC[C@H]1O[C@H](O[C@H]2O[C@H](CO)[C@@H](O)[C@H](O)[C@H]2O)[C@H](O)[C@@H](O)[C@@H]1O [α-glc-glc, α-glucoseα-D-glucose, reference compound] | about 7% | about 30% | even weaker | – | –
2 | CC(=O)N[C@@H]1[C@@H](O[C@H]2O[C@H](C)[C@@H](O)C[C@@H]2O)[C@@H](O)[C@@H](CO)O[C@H]1O [α-tyv-GalNAc, α-tyvelose(1,3)β-d-N-acetylgalactosamine] | about 28% | about 50% | – | about 74% | –
3 | C[C@H]1O[C@H](O)[C@@H](O)C[C@@H]1O [α-tyvelose] | – | – | – | – | competitive inhibition of Tsp 130 antibody binding, comparison [4]: able to competitively inhibit Tsp 130 antibody binding to TSL-1 antigen but at a higher concentration than β-tyvelose
4 | CC(=O)N[C@@H]1[C@@H](O[C@@H]2O[C@H](C)[C@@H](O)C[C@@H]2O)[C@@H](O)[C@@H](CO)O[C@H]1O [β-tyv-GalNAc, β-tyvelose(1,3)β-d-N-acetylgalactosamine] | about 97% | about 100% | higher affinity than to α-tyv-GalNAc | about 97% | relative affinity of Tsp 130 binding ([1]; in words, Example 7): higher affinity than to α-tyv-GalNAc or to α-glc-glc; inhibition of Tsp 130 binding to TSL-1 antigen ([3]; about 100 μg/ml): about 92%; relative affinity of Tsp 130 binding ([3]; in words, Example 6): higher affinity than to α-tyv-GalNAc
5 | β-3,6-dideoxy-D-arabinohexose [β-tyvelose] | – | – | – | – | competitive inhibition of Tsp 130 antibody binding, comparison ([4]; in words, Examples 5 through 7): better than α-tyvelose and even better than α-glc-glc
